Consider 51 compounds from US12064426B2, “Selective inhibitors of ROCK1 and ROCK2 protein kinases and uses thereof” (GENOSCO Inc., priority 2021, dated 2024).

For test [1], the target named is T1, Recombinant ROCK2 (amino acids 5-554) (Homo sapiens, UniProt O75116).
T1 construct: ROCK2 (amino acids 5-554); by word order, ROCK2 from SignalChem
Nature of the test: ROCK inhibition assay, LANCE Ultra TR-FRET kinase assay (ROCK2). The class given is biochemical. The note with it: 4 μM ATP, 50 nM ULight-CREBtide substrate. The essentials: (§1)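 Reaction buffer 50 mM HEPES pH 7.5, 10 mM MgCl2, 1 mM EGTA, 2 mM DTT; kinase, ULight-CREBtide (50 nM) and ATP (ROCK1 1 μM, ROCK2 4 μM) react 1 h at room temperature. Phospho-Ser133 detected by europium antibody after 10 mM EDTA stop, TR-FRET ex 320 nm; IC50 calculated.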
For orientation: In TR-FRET formats the signal depends on donor and acceptor labels being close together.

The target in test [2] is T2, Recombinant ROCK1 (amino acids 1-477) (Homo sapiens, UniProt Q13464).
T2 construct: Recombinant ROCK1 (amino acids 1-477); by word order, ROCK1 from Carna Biosciences
T2 sequence (Q13464 1-477): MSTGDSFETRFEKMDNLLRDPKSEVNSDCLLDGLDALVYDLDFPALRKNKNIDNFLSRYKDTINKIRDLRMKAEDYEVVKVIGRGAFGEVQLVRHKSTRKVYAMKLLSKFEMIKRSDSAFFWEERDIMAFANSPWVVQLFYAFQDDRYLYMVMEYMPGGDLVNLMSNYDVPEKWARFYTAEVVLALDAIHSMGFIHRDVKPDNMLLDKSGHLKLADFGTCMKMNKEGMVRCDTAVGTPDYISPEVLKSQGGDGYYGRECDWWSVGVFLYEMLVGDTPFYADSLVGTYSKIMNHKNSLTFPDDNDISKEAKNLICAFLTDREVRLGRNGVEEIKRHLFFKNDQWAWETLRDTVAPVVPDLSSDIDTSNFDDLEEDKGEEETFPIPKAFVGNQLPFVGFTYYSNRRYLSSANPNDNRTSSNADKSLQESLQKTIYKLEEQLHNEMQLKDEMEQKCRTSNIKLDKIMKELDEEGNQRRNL
Nature of the test: ROCK inhibition assay, LANCE Ultra TR-FRET kinase assay (ROCK1). The class given is biochemical. The note with it: 1 μM ATP, 50 nM ULight-CREBtide substrate. The method in brief:
as §1

By IC50 is commonly meant the concentration that inhibits the measured activity by half.

T1 sequence (O75116 5-554): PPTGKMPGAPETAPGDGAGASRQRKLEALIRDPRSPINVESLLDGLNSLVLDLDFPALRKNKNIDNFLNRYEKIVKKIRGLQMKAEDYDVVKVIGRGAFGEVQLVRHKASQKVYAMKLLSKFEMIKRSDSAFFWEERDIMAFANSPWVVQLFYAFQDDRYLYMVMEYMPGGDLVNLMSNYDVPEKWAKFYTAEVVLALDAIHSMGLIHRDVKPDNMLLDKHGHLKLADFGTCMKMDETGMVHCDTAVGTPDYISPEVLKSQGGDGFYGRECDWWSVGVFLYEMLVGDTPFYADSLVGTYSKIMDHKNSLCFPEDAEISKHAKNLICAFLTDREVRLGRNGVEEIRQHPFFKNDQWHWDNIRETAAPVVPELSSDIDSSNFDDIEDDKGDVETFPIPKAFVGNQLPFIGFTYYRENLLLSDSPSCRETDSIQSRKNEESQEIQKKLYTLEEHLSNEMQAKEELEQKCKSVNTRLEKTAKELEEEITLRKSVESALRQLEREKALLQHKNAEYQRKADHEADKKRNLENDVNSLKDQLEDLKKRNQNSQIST

In the case of `O=C(NC1CCNCC1)c1cccc(Cn2ccc3cc(-c4c[nH]nc4C(F)(F)F)ccc3c2=O)c1` [Compound 46], the IC50 in test [1] and in test [2] was below 10 nM each time.

Take `O=C(N[C@H]1CC[C@@H](O)CC1)c1cc(F)cc(Cn2ccc3cc(N4CCOCC4)ccc3c2=O)c1` [Compound 215]: the half-inhibitory concentration (IC50) in test [1] is 100 to 500 nM; in test [2] it was above 501 nM.

As to `C[C@H](c1cccc(C(=O)NCCO)c1)n1cnc2cc(-c3cn[nH]c3C(F)F)ccc2c1=O` [Compound 459], the IC50 in test [1] was in the range of 10 to 100 nM; in test [2] it was 101 to 500 nM.

As for `CNC(=O)c1cccc(Cn2cnc3cc(-c4cnnn4C)ccc3c2=O)c1` [Compound 439], the values for the half-inhibitory concentration (IC50) in test [1] and in test [2] were above 500 nM and above 501 nM, respectively.

Take `Cc1nocc1-c1ccc2c(=O)n(Cc3cccc(C(=O)NCC(F)(F)F)c3)ccc2c1` [Compound 67]: the values for the IC50 in test [1] and in test [2] were 10 to 100 nM and 11 to 100 nM, respectively.

For `O=C(NCC1CCNCC1)c1cc(F)cc(Cn2ccc3cc(-c4c[nH]nc4C(F)F)ccc3c2=O)c1` [Compound 61], the IC50 in test [1] and in test [2] was below 10 nM throughout.

Consider `C[C@H](c1cccc(C(=O)N(C)Cc2ccncc2)c1)n1cnc2cc(-c3cn[nH]c3C(F)(F)F)ccc2c1=O` [Compound 446], for which the IC50 in test [1] is above 500 nM; in test [2], above 501 nM.

In the case of `C[C@H](c1cccc(C(=O)NCC2CCN(C)CC2)c1)n1cnc2cc(-c3cn[nH]c3Cl)ccc2c1=O` [Compound 465], the half-maximal inhibitory concentration (IC50) in test [1] and in test [2] was below 10 nM in each case.

`CNC(=O)c1cccc(Cn2ccc3cc(-c4conc4C)ccc3c2=O)n1` [Compound 311]: the results for the concentration for half-maximal inhibition (IC50) in test [1] and in test [2] were 100 to 500 nM and above 501 nM, respectively.

With `Nc1cc(-c2ccc3c(=O)n(Cc4cccc(C(=O)Nc5ccon5)c4)ccc3c2)ccn1` [Compound 204], the IC50 in test [1] is 100 to 500 nM; in test [2] it was above 501 nM.

Regarding `Cc1nocc1-c1ccc2c(=O)n(Cc3cccc(C(=O)Nc4ccc5c(c4)CCN(C(C)C)C5)c3)ccc2c1` [Compound 98], the IC50 in test [1] and in test [2] was below 10 nM in each case.

As to `O=C(NCC1CCOCC1)c1cccc(Cn2cnc3cc(-c4cn[nH]c4C(F)(F)F)ccc3c2=O)c1` [Compound 379], the IC50 is below 10 nM in test [1] and 11 to 100 nM in test [2].

As for `[2H]C([2H])([2H])NC(=O)c1cccc(Cn2ccc3cc(-c4cn[nH]c4C(F)F)ncc3c2=O)c1` [Compound 238], the IC50 in test [1] was below 10 nM; in test [2], 11 to 100 nM.

Turning to `Cc1nocc1-c1ccc2c(=O)n(Cc3cccc(C(=O)Nc4nc5c(s4)CCN(C(C)C)C5)c3)ccc2c1` [Compound 95], the results for the IC50 in test [1] and in test [2] were below 10 nM and 11 to 100 nM, respectively.

As to `CNC(=O)c1cccc(C(C)n2ccc3cc(-c4conc4C)ccc3c2=O)c1` (stereo not drawn) [Compound 309], the half-maximal inhibitory concentration (IC50) in test [1] is below 10 nM; in test [2], 11 to 100 nM.

As to `C[C@H](c1cccc(C(=O)NCc2ccc(F)nc2)c1)n1cnc2cc(-c3cn[nH]c3N)ccc2c1=O` [Compound 522], the IC50 in test [1] and in test [2] was below 10 nM throughout.

As to `C[C@H](c1cccc(C(=O)N[C@H]2C[C@@H](O)C2)c1)n1cnc2cc(-c3ccnn3C)ccc2c1=O` [Compound 478], the IC50 in test [1] is below 10 nM; in test [2], 11 to 100 nM.

As to `CNC(=O)c1cc(Cn2ccc3cc(-c4cn[nH]c4C(F)(F)F)ccc3c2=O)ccc1F` [Compound 284], the IC50 lay within 10 to 100 nM in test [1] and 101 to 500 nM in test [2].

Turning to `Cn1nccc1-c1ccc2c(=O)n(Cc3cccc(C(=O)NCC4CC(O)C4)c3)ccc2c1` (stereo not drawn) [Compound 112], the IC50 fell in the range of 10 to 100 nM in test [1] and 101 to 500 nM in test [2].

With `CNC(=O)c1cccc(Cn2ccc3cc(-c4c[nH]nc4C)ncc3c2=O)c1` [Compound 239], the 50% inhibitory concentration (IC50) in test [1] was below 10 nM; in test [2], 11 to 100 nM.

For the compound `CNC(=O)c1cccc(C(C)n2cc(CCO)c3cc(-c4cn[nH]c4Cl)ccc3c2=O)c1` (stereo not drawn) [Compound 551], the 50% inhibitory concentration (IC50) in test [1] was below 10 nM; in test [2] it was 11 to 100 nM.

Turning to `CC(C)N1CCC(NC(=O)c2cccc(Cn3ccc4cc(-c5ccnn5C)ccc4c3=O)c2)CC1` [Compound 118], the values for the IC50 in test [1] and in test [2] were 10 to 100 nM and 101 to 500 nM, respectively.

Consider `[2H]C([2H])([2H])NC(=O)c1cccc(Cn2ccc3cc(-c4cc[nH]c4C)ncc3c2=O)c1` [Compound 232], for which the results for the 50% inhibitory concentration (IC50) in test [1] and in test [2] were below 10 nM and 11 to 100 nM, respectively.

`Cc1nocc1-c1ccc2c(=O)n(Cc3cccc(C(=O)NC4CCNCC4)c3)ccc2c1` [Compound 85]: the values for the IC50 in test [1] and in test [2] were below 10 nM and 11 to 100 nM, respectively.

For the compound `O=c1c2ccc(-c3ccncc3)cc2ncn1C(CO)c1cccc(Cl)c1` (stereo not drawn) [Compound 483, 3-(1-(3-chlorophenyl)-2-hydroxyethyl)-7-(pyridin-4-yl)quinazolin-4(3H)-one], the figures for the IC50 in test [1] and in test [2] were 10 to 100 nM and 101 to 500 nM, respectively.

For `O=C(N[C@H]1CC[C@@H](O)CC1)c1cccc(Cn2ccc3cc(N4CCOCC4)ccc3c2=O)c1` [Compound 214], the half-inhibitory concentration (IC50) in test [1] was 100 to 500 nM; in test [2], above 501 nM.

For the compound `NS(=O)(=O)c1ccc(NC(=O)c2cc(F)cc(Cn3ccc4cc(-c5c[nH]nc5C(F)(F)F)ccc4c3=O)c2)cc1` [Compound 127], the half-inhibitory concentration (IC50) in test [1] is 10 to 100 nM; in test [2], 101 to 500 nM.

As to `O=C(NCCc1ccncc1)c1cccc(Cn2cnc3cc(-c4cn[nH]c4C(F)(F)F)ccc3c2=O)c1` [Compound 370], the 50% inhibitory concentration (IC50) in test [1] and in test [2] was below 10 nM throughout.

As for `Cn1nccc1-c1ccc2c(=O)n(Cc3cc(F)cc(C(=O)NC4CCNCC4)c3)ccc2c1` [Compound 177], the half-maximal inhibitory concentration (IC50) was below 10 nM in test [1] and 11 to 100 nM in test [2].

Consider `CNC(=O)c1cc(F)cc(C(C)n2cnc3cc(-c4cn[nH]c4C(F)(F)F)ccc3c2=O)c1` (stereo not drawn) [Compound 388], for which the half-inhibitory concentration (IC50) in test [1] was below 10 nM; in test [2], 11 to 100 nM.

Consider `CNC(=O)c1cccc(Cn2cc(Cl)c3cc(-c4conc4C)ccc3c2=O)c1` [Compound 310], for which the IC50 in test [1] was below 10 nM; in test [2], 11 to 100 nM.

For `CNC(=O)c1cccc(Cn2cc(CCO)c3cc(-c4conc4C)ccc3c2=O)c1` [Compound 552], the 50% inhibitory concentration (IC50) in test [1] lay within 10 to 100 nM; in test [2] it was 101 to 500 nM.

With `CNC(=O)c1cccc([C@H](C)n2cnc3cc(-c4cn[nH]c4C(F)(F)F)ccc3c2=O)c1` [Compound 444], the IC50 was below 10 nM in test [1] and 11 to 100 nM in test [2].

In the case of `CNC(=O)c1cccc(Cn2ccc3cc(C4=CCOC4)ccc3c2=O)c1` [Compound 304], the 50% inhibitory concentration (IC50) in test [1] is above 500 nM; in test [2] it was above 501 nM.

Regarding `Cc1nocc1-c1ccc2c(=O)n(Cc3cccc(NC(=O)C4COC4)c3)ccc2c1` [Compound 348], the half-inhibitory concentration (IC50) in test [1] was 10 to 100 nM; in test [2], 11 to 100 nM.

Consider `CN1CCC(NC(=O)c2cccc(Cn3ccc4cc(-c5c[nH]nc5C(F)(F)F)ccc4c3=O)c2)CC1` [Compound 47], for which the IC50 in test [1] and in test [2] was below 10 nM in each case.

Turning to `CC(O)c1cn(Cc2cccc(C(=O)NC3CC3)c2)c(=O)c2ccc(-c3c[nH]nc3C(F)(F)F)cc12` (stereo not drawn) [Compound 533], the half-inhibitory concentration (IC50) in test [1] is 10 to 100 nM; in test [2], 101 to 500 nM.

Regarding `[2H]C([2H])([2H])NC(=O)c1cccc(Cn2ccc3cc(-c4cn[nH]c4C(F)(F)F)ncc3c2=O)c1` [Compound 234], the values for the half-inhibitory concentration (IC50) in test [1] and in test [2] were below 10 nM and 11 to 100 nM, respectively.

In the case of `O=C(NC1CCOCC1)c1cccc(Cn2ccc3cc(-c4c[nH]nc4C(F)(F)F)ccc3c2=O)c1` [Compound 45], the concentration for half-maximal inhibition (IC50) fell in the range of 10 to 100 nM in test [1] and 101 to 500 nM in test [2].

`CN1CCC(NC(=O)c2cc(F)cc(Cn3ccc4cc(-c5ccnn5C)ccc4c3=O)c2)CC1` [Compound 176]: the IC50 in test [1] lay in the range of 10 to 100 nM; in test [2], 11 to 100 nM.

On to `O=c1c2ccc(-c3c[nH]nc3C(F)(F)F)cc2ccn1Cc1cccc(O)c1` [Compound 7], for which the 50% inhibitory concentration (IC50) in test [1] lay within 10 to 100 nM; in test [2] it was 101 to 500 nM.

As to `Cc1nocc1-c1ccc2c(=O)n(Cc3cccc(C(=O)NCC(F)(F)F)c3)cnc2c1` [Compound 421], the concentration for half-maximal inhibition (IC50) in test [1] is below 10 nM; in test [2] it was 11 to 100 nM.

With `O=c1c2ccc(-c3ccncc3)cc2ccn1Cc1cccc(O)c1` [Compound 23], the 50% inhibitory concentration (IC50) is 100 to 500 nM in test [1] and above 501 nM in test [2].

Regarding `CNC(=O)c1cccc(Cn2ccc3cc(N4CCOCC4)ccc3c2=O)c1` [Compound 328, N-methyl-3-((6-morpholino-1-oxoisoquinolin-2(1H)-yl)methyl)benzamide], the IC50 was 10 to 100 nM in test [1] and 101 to 500 nM in test [2].

For `CNC(=O)c1cccc([C@@H](C)n2cnc3cc(-c4ccnn4C)ccc3c2=O)c1` [Compound 476], the half-inhibitory concentration (IC50) is below 10 nM in test [1] and 11 to 100 nM in test [2].

For `O=C(NC1CCOCC1)c1cc(F)cc(Cn2ccc3cc(-c4c[nH]nc4C(F)(F)F)ccc3c2=O)c1` [Compound 130], the IC50 in test [1] was in the range of 10 to 100 nM; in test [2], 11 to 100 nM.

Take `C[C@H](c1cccc(C(=O)Nc2ccc(F)cc2)c1)n1cnc2cc(-c3cn[nH]c3Br)ccc2c1=O` [Compound 517]: the results for the IC50 in test [1] and in test [2] were below 10 nM and 11 to 100 nM, respectively.

As to `COc1cccc(Cn2ccc3cc(-c4c[nH]nc4Cl)ccc3c2=O)c1` [Compound 18], the values for the 50% inhibitory concentration (IC50) in test [1] and in test [2] were below 10 nM and 11 to 100 nM, respectively.

Consider `CNC(=O)c1cccc(Cn2cc(CCN(C)C)c3cc(-c4ccnn4C)ccc3c2=O)c1` [Compound 566], for which the values for the half-inhibitory concentration (IC50) in test [1] and in test [2] were below 10 nM and 11 to 100 nM, respectively.

For the compound `CNC(=O)c1cccc(Cn2ccc3cc(-c4ccnc(N)c4)ncc3c2=O)c1` [Compound 244], the IC50 is 10 to 100 nM in test [1] and 101 to 500 nM in test [2].

Consider `Cn1nccc1-c1ccc2c(=O)n(Cc3cccc(C(=O)Nc4nc5c(s4)CCNC5)c3)ccc2c1` [Compound 122], for which the concentration for half-maximal inhibition (IC50) in test [1] and in test [2] was below 10 nM in each case.
